Experiments:
Test in all cases: cells
Design in all cases: species or system panel of human cancer cell lines; Eurofins OncoPanel proliferation; nuclei count by high-content fluorescence imaging, 10-point dose response
HEC-1-A = details: Homo sapiens, HEC-1-A, 72 h, cell count, 3 days
Method in brief: (§1)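 Ten half-log concentrations from 100 μM (0.1% DMSO max) applied one day post-seeding, 3-day exposure at 37°C; untreated time-zero plate for GI50. Readout is nuclear cell count by automated fluorescence imaging, giving EC50, IC50, GI50 and 0–10 activity area.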

HCT-15 = details: Homo sapiens, HCT-15, 72 h, cell count, 3 days
Method in brief: as §1

AN3 CA = details: Homo sapiens, AN3-CA, 72 h, cell count, 3 days
Method in brief: as §1

EB2 = details: Homo sapiens, EB2, 72 h, cell count, 3 days
Method in brief: as §1

BeWo = details: Homo sapiens, BeWo, 72 h, cell count, 3 days
Method in brief: as §1

A375 = details: Homo sapiens, A-375, 72 h, cell count, 3 days
Method in brief: as §1

Raji = details: Homo sapiens, Raji, 72 h, cell count, 3 days
Method in brief: as §1

CHP-212 = details: Homo sapiens, CHP-212, 72 h, cell count, 3 days
Method in brief: as §1

SJRH30 = details: Homo sapiens, SJRH30, 72 h, cell count, 3 days
Method in brief: as §1

D341 Med = details: D341 Med, 72 h, cell count, 3 days
Method in brief: as §1

DB = details: Homo sapiens, DB, 72 h, cell count, 3 days
Method in brief: as §1

Jiyoye = details: Homo sapiens, JIYOYE, 72 h, cell count, 3 days
Method in brief: as §1

CAL-62 = details: Homo sapiens, CAL-62, 72 h, cell count, 3 days
Method in brief: as §1

TT = details: Homo sapiens, TT, 72 h, cell count, 3 days
Method in brief: as §1

[1] = 50% of maximum possible response

IC50 (HCT-15; [1]): 32.1 µM
GI50 (HCT-15; corrected for time zero): 31 µM
EC50 (HCT-15; curve inflection point): 30.8 µM
IC50 (A375; [1]): 9.47 µM
GI50 (A375; corrected for time zero): 9 µM
EC50 (A375; curve inflection point): 9.47 µM
IC50 (Raji; [1]): 69.1 µM
GI50 (Raji; corrected for time zero): 63.4 µM
EC50 (Raji; curve inflection point): 69.1 µM
SMILES: C[C@@H]1CC(=O)NN=C1c1ccc(NN=C(C#N)C#N)cc1 [levosimendan]
IC50 (HEC-1-A; [1]): 34.3 µM
GI50 (HEC-1-A; corrected for time zero): 28.2 µM
EC50 (HEC-1-A; curve inflection point): 34.3 µM
IC50 (AN3 CA; [1]): 21.2 µM
GI50 (AN3 CA; corrected for time zero): 11.6 µM
EC50 (AN3 CA; curve inflection point): 21.2 µM
IC50 (EB2; [1]): 34.4 µM
GI50 (EB2; corrected for time zero): 24.5 µM
EC50 (EB2; curve inflection point): 34.4 µM
IC50 (BeWo; [1]): 37.4 µM
GI50 (BeWo; corrected for time zero): 33.9 µM
EC50 (BeWo; curve inflection point): 37.4 µM
IC50 (CHP-212; [1]): 84.9 µM
GI50 (CHP-212; corrected for time zero): 49.1 µM
EC50 (CHP-212; curve inflection point): 84.9 µM
IC50 (SJRH30; [1]): 11.4 µM
GI50 (SJRH30; corrected for time zero): 7.7 µM
EC50 (SJRH30; curve inflection point): 9.67 µM
IC50 (D341 Med; [1]): 73.8 µM
GI50 (D341 Med; corrected for time zero): 39.6 µM
EC50 (D341 Med; curve inflection point): 73.8 µM
IC50 (DB; [1]): 17.6 µM
GI50 (DB; corrected for time zero): 14.5 µM
EC50 (DB; curve inflection point): 17.6 µM
IC50 (Jiyoye; [1]): 62.5 µM
GI50 (Jiyoye; corrected for time zero): 54.6 µM
EC50 (Jiyoye; curve inflection point): 62.5 µM
IC50 (CAL-62; [1]): 12.3 µM
GI50 (CAL-62; corrected for time zero): 11.4 µM
EC50 (CAL-62; curve inflection point): 12.1 µM
IC50 (TT; [1]): > 100 µM
GI50 (TT; corrected for time zero): 14.3 µM
EC50 (TT; curve inflection point): > 100 µM

From article PMC6576746, “Rational discovery of dual-indication multi-target PDE/Kinase inhibitor for precision anti-cancer therapy using structural systems pharmacology” (PLoS Computational Biology, 2019)
